The test system of one series is Lactobacillus brevis. Nature of the series: Growth curves in liquid culture (optical density) vs DMSO control. It counts as cell-based. Conditions: 5-50 μM, FIG. 4. On the procedure:
Growth experiments with NQNO were conducted against Neisseria gonorrhoeae strain MS11 (Edwards, M., et al., Antigenic analysis of gonococcal pili using monoclonal antibodies, J Exp Med, 1984. 160(6): p. 1782-91) and a multidrug-resistant N. gonorrhoeae isolate from Slovenia (Unemo M, Golparian O, Potočnik M, Jeverica S. Treatment failure of pharyngeal gonorrhoea with internationally recommended first-line ceftriaxone verified in Slovenia, September 2011. Euro Surveill. 2012; 17(25):pii=20200), Neisseria macacae, and Lactobacillus brevis. The bacteria were inoculated in GC (Difco™ GC medium Ref. 228950, BD Becton Dickinson) and PPM broth (15 g/L Proteon Pepton, 1 g/L soluble starch, 5 g/L NaCl, 4 g/L KH2PO4, 1 g/L K2HPO4, pH 7.5) (Neisseriae) or TSB (BBL™ Trypticase Soy Broth Ref 211768, BD Becton Dickinson) (Lactobacillus) supplemented with solvent (DMSO) or the indicated concentrations of NQNO (5-50 04) and their growth at 37° C. was monitored over the course of 10 h by optical density readings in 30 minute intervals. […]
Before every experiment, bacteria were pre-cultured in 5 ml liquid medium for at least 2 hours then harvested and resuspended in PBS (phosphate buffered saline). Optical density (OD) was determined and a volume equal to an OD of 0.2 was inoculated into 5 ml of the respective medium. […] Optical density was determined every 0.5 h.

Series [1] has as its system immortalized human vaginal epithelial cells (MS74). Nature of the series: MTT assay of metabolic activity (cytotoxicity). The format is cell-based. The settings on record: FIG. 13. From the text:
HeLa S3 cells were cultivated in Dulbecco's modified Eagle's medium (DMEM) medium supplemented with 10% fetal calf serum and passaged every 2-3 days. Primary human vaginal epithelial cells (hVEC/MS74) were obtained from A. J. Schaeffer (Feinberg School of Medicine, Northwestern University, Chicago, Ill.) and are derived from vaginal tissue of a post-menopausal person. The cell line was created through immortalization of these cells with human papilloma virus 16, E6 and E7 genes according to literature (N. Rajan et. al., Characterization of an immortalized human vaginal epithelial cell line. J Urol 163, 616-622 (2000)). MS74 were cultured on gelatine-coated cell culture dished using Dulbecco's modified Eagle's medium (DMEM) medium (biochrom) supplemented with 10% fetal calf serum, 1% non-essential amino acids and 1% pyruvate at 37° C. in 5% CO2 and subcultured when half confluency was reached.
All plates were coated overnight at 4° C. with 0.1% gelatine in PBS before use. 2×10^4 HeLa S3 or MS74 cells were incubated with the mentioned concentrations of NQNO in 100 μl of their respective medium and incubated for 2 days at 37° C. and 5% CO2. 10 μl of MTT solution (12 mM in PBS, sterile filtered with […]) were added. The cells were subsequently incubated for 2 h at 37° C. […] 0D550 was measured using a Thermo Fisher Varioskan Flash spectrophotometer.
A general note: Tetrazolium assays rely on reduction of a dye to a coloured formazan, in cell work by metabolically active cells.

In a further series the test system is N. gonorrhoeae. As to the kind of experiment: Immunofluorescence staining of upper vaginal tract sections of infected CEAtg mice. The format is in vivo, Neisseria gonorrhoeae. Conditions: 20 μl of 50 μM 2 h after infection, tissue 20 h later, FIGS. 8 and 9. As to the method: 6 to 8 week old, female CEA-transgenic mice were infected with N. gonorrhoeae. 2 h after infection, the animals were treated with 20 μl buffer containing solvent (DMSO) or 50 μM NQNO (Compound represented by the Formula (5)). 20 h later, the genital tract was excised and cryosections were stained for cell nuclei (Hoechst; blue), human CEA (red) and N. gonorrhoeae (gonococci, green) (FIG. 8).
Additional cryosections from the same samples were stained for cell nuclei (Hoechst; blue), human collagen (red) and N. gonorrhoeae (gonococci, green) (FIG. 9).
In particular, in the above experiments the genital tract of infected mice was excised and immediately fixed with 4% paraformaldehyde for at least 24 h. The fixed tissue was sequentially transferred to 10% sucrose, 0.05% cacodylic acid for 1 h at 4° C., to 20% sucrose for 1 h at 4° C., and then into 30% sucrose at 4° C. overnight. Organs were mounted in the embedding medium (Cryo-M-Bed; Bright Instrument, Huntingdon, UK) and frozen at −20° C. 10 μm thick sections were cut at −20° C. using a cryostat (Vacutom HM500, Microm, Germany). Sections were stained with a mouse monoclonal antibody against collagen type IV (clone M3F7; dilution 1:200) together with a polyclonal rabbit antibody against N. gonorrhoeae (dilution 1:100). […]

A short description of series [2]: Stability in deuterated methanol by proton NMR. It counts as physicochemical. The settings on record: 25 mM in deuterated methanol, 25° C. or 37° C., 28 days. On the procedure:
Two samples of NQNO were dissolved in deuterated methanol (CD3OD) to reach a final concentration of 25 mM. Samples were kept at 25° C. or 37° C. for 28 days and proton NMR spectra were measured with the same acquisition parameters every week and the spectra compared with the ones from day 0.

Series [3] can be described thus: Stability in DMEM with 10% fetal calf serum by LC-MS. It counts as physicochemical. Conditions: 100 μM in DMEM with 10% fetal calf serum, 24° C. and 37° C. As to the method:
Stability of 100 μM NQNO in Dulbecco's modified Eagle's medium (DMEM) medium supplemented with 10% fetal calf serum at 24° C. and 37° C. was evaluated over a period of 4 days. Samples were taken at the beginning (day 0) and every second day. Samples were analyzed by LC-MS and the integrals of the detected NQNO (by using extracted ion chromatograms) compared to the integral of the control (100 μM NQNO in H2O) which was set to 100%.

Each structure is given as a SMILES string. “Also recorded” adds a separate entry of the source.

Take `CCCCCCCCCc1cc(=O)c2ccccc2n1O` [NQNO, 1-Hydroxy-2-nonylquinolin-4(1H)-one]: the Effect on growth result in the series on Lactobacillus brevis was “did not compromise the growth”. The “Metabolic activity (MTT)” value in series [1] (50 μM, two days) is “only slightly reduced metabolic activity”. Also, the “Cytotoxicity (metabolic activity, MTT)” value in series [1] (up to 25 μM, 2 days) was “not harmed”. Further, the “Gonococci on the mucosal surface (fluorescence microscopy)” value in the series with N. gonorrhoeae is recorded as “hardly any gonococci could be detected; also recorded: no gonococci could be detected”. Moreover, the Stability in solvent entry in series [2] is “stable at 37 °C in deuterated methanol for at least one month”. In addition, the “Time stable in serum-containing cell culture medium” value in series [3] is listed as “at least 4 days”.
